Source: patent US20110065796A1 (SHIRE LLC, priority 2009, published 2011)

Legend:
[1] = Prodrug stability in freshly withdrawn porcine intestinal fluid; assay type: in vitro ADME; settings: for Prodrug remaining at 3 h: porcine intestinal fluid pH 6.8, 37° C., in % (unit assumed)
From the text: Many of the peptidases in the intestinal lumen may not be present in the USP simulated intestinal fluid preparations previously described. […] The prodrugs evaluated were selected on the basis of adequate pharmacokinetics (see Example 8).

[2] = Prodrug stability in simulated gastric fluid; settings: 37° C., pH 1.1, HPLC
Experimental: (§1) The remaining concentrations of the prodrugs were then assayed by H PLC.

[3] = Prodrug stability in simulated intestinal fluid; settings: 37° C., pH 6.8, HPLC
Experimental: as §1

[4] = Comparative pharmacokinetic screening study in the monkey (relative Cmax of guanfacine); settings: oral gavage, monkey screening study
Experimental: Blood samples were taken on 4 sampling occasions at various times up to 6 hours after administration and submitted to analysis for the parent drug and prodrug using a qualified LC-MS-MS assay.

SMILES | Prodrug remaining at 3 h [1] | % prodrug remaining following incubation for 1 h in simulated gastric fluid pH 1.1 [2] [%] | % prodrug remaining following incubation for 2 h in simulated intestinal fluid pH 6.8 [3] [%] | stability in porcine intestinal fluid (in words) [1] | prodrug levels in plasma (in words) [4]
N=C(NC(=O)Cc1c(Cl)cccc1Cl)NC(=O)OCCNC(=O)CC[C@H](N)C(=O)O [Compound 58, Guanfacine (Ethanolamine-(S)-γ-Glutamate) Carbamate] | 81.26 ± 4.57 | 96 | 99 | – | –
CC(C)[C@H](N)C(=O)N[C@@H](COC(=O)NC(=N)NC(=O)Cc1c(Cl)cccc1Cl)C(=O)O [Compound 17, Guanfacine ((S)-Serine-(S)-Valine) Carbamate] | – | 93 | 78 | very unstable | total absence of prodrug in the plasma
CC(C)[C@@H](N)C(=O)NCCC(=O)NC(=N)NC(=O)Cc1c(Cl)cccc1Cl [Compound 11, Guanfacine (β-Alanine-(R)-Valine) Amide] | 91.3 ± 2.6 | 79 | 104 | high stability | detectable prodrug levels in plasma
O=C(O)CC[C@@H]1N=C(NC(=O)Cc2c(Cl)cccc2Cl)NC1=O [Compound 37, Guanfacine-(S)-Glutamic Cyclic Adduct] | – | 58 | 110 | – | high prodrug levels
CC(C)[C@H](N)C(=O)NCCOC(=O)NC(=N)NC(=O)Cc1c(Cl)cccc1Cl [Compound 26, Guanfacine (Ethanolamine-(S)-Valine) Carbamate] | 13.8 ± 0.6 | 97 | 91 | very unstable | –
N=C(NC(=O)Cc1c(Cl)cccc1Cl)NC(=O)c1ccc(N)cc1 [Compound 52, Guanfacine PABA Amide] | 87.77 ± 5.80 | 84 | 97 | high stability | –
N=C(NC(=O)Cc1c(Cl)cccc1Cl)NC(=O)OCCNC(=O)[C@@H]1CCC(=O)N1 [Compound 28, Guanfacine (Ethanolamine-(S)-Pyroglutamic acid) Carbamate] | – | 103 | 106 | – | –
N=C(NC(=O)CCCNC(=O)CC[C@H](N)C(=O)O)NC(=O)Cc1c(Cl)cccc1Cl [Compound 57, Guanfacine (GABA-(S)-γ-Glutamate) Amide] | – | 81 | 106 | – | –
CC(C)[C@H](N)C(=O)N[C@H](CCC(=O)NC(=N)NC(=O)Cc1c(Cl)cccc1Cl)C(=O)O [Compound 32, Guanfacine ((R)-γ-Glutamate-(S)-Valine) Amide] | – | 93 | 84 | – | –
CC(C)[C@@H](N)C(=O)NCCCC(=O)NC(=N)NC(=O)Cc1c(Cl)cccc1Cl [Compound 22, Guanfacine (GABA-(R)-Valine) Amide] | – | 106 | 85 | – | –
CC(=O)N[C@@H](COC(=O)NC(=N)NC(=O)Cc1c(Cl)cccc1Cl)C(=O)O [Compound 15, Guanfacine Acetyl-(S)-Serine Carbamate] | – | 83 | 112 | – | –
CN(CC(=O)O)C(=O)NC(=N)NC(=O)Cc1c(Cl)cccc1Cl [Compound 9, Guanfacine Sarcosine Urea] | – | 101 | 105 | – | high prodrug levels
N=C(NC(=O)CC[C@H](NC(=O)[C@H](N)CCC(N)=O)C(=O)O)NC(=O)Cc1c(Cl)cccc1Cl [Compound 46, Guanfacine ((S)-γ-Glutamate-(R)-Glutamine) Amide] | – | 61 | 81 | – | –
CC(C)C[C@@H](N)C(=O)N[C@@H](CCC(=O)NC(=N)NC(=O)Cc1c(Cl)cccc1Cl)C(=O)O [Compound 42, Guanfacine ((S)-γ-Glutamate-(R)-Leucine) Amide] | – | 70 | 83 | – | –
CC(C)[C@@H](N)C(=O)N[C@H](CCC(=O)NC(=N)NC(=O)Cc1c(Cl)cccc1Cl)C(=O)O [Compound 31, Guanfacine ((R)-γ-Glutamate (R)-Valine) Amide] | – | 70 | 85 | – | –
CC(C)[C@@H](N)C(=O)N[C@@H](COC(=O)NC(=N)NC(=O)Cc1c(Cl)cccc1Cl)C(=O)O [Compound 18, Guanfacine ((S)-Serine-(R)-Valine) Carbamate] | – | 74 | 108 | – | –
N=C(NC(=O)Cc1c(Cl)cccc1Cl)NC(=O)O[C@@H]1CN[C@H](C(=O)O)C1 [Compound 14, Guanfacine (S,S)-4-Hydroxyproline Carbamate] | – | 70 | 108 | – | –
N=C(NC(=O)Cc1c(Cl)cccc1Cl)NC(=O)NC(C(=O)O)c1ccccc1 (stereo not shown) [Compound 8, Guanfacine Phenylglycine Urea] | – | 96 | 100 | – | –
CSCC[C@@H](N)C(=O)N[C@@H](CCC(=O)NC(=N)NC(=O)Cc1c(Cl)cccc1Cl)C(=O)O [Compound 44, Guanfacine ((S)-γ-Glutamate-(R)-Methionine) Amide] | – | 75 | 85 | – | –
CC(C)[C@H](N)C(=O)NCCCC(=O)NC(=N)NC(=O)Cc1c(Cl)cccc1Cl [Compound 56, Guanfacine (GABA-(S)-Valine) Amide] | – | 70 | 111 | – | –
N=C(NC(=O)CCNC(=O)[C@@H]1CCC(=O)N1)NC(=O)Cc1c(Cl)cccc1Cl [Compound 10, Guanfacine (β-Alanine-(S)-Pyroglutamic acid) Amide] | – | 82 | 112 | – | –
CN1CC(=O)N=C1NC(=O)Cc1c(Cl)cccc1Cl [Compound 12, Guanfacine-Sarcosine Cyclic Adduct] | – | 48 | 87 | – | –
CNCC(=O)N[C@@H](CCOC(=O)NC(=N)NC(=O)Cc1c(Cl)cccc1Cl)C(=O)O [Compound 66, Guanfacine ((S)-Homoserine-Sarcosine) Carbamate] | – | 86 | 101 | – | –
NC(=O)CC[C@@H]1N=C(NC(=O)Cc2c(Cl)cccc2Cl)NC1=O [Compound 38, Guanfacine-(S)-Glutamine Cyclic Adduct] | – | 70 | 87 | – | –
N=C(NC(=O)CC[C@H](NC(=O)c1ccc(C(=O)O)cc1)C(=O)O)NC(=O)Cc1c(Cl)cccc1Cl [Compound 60, Guanfacine ((S)-γ-Glutamate-Terephthalic acid) Amide] | – | 81 | 97 | – | –
CNCC(=O)N[C@@H](CCC(=O)NC(=N)NC(=O)Cc1c(Cl)cccc1Cl)C(=O)O [Compound 7, Guanfacine ((S)-γ-Glutamate-Sarcocine) Amide] | 48.9 ± 0.8 | 79 | 66 | – | –
CC(C)[C@@H](NC(=O)COC(=O)NC(=N)NC(=O)Cc1c(Cl)cccc1Cl)C(=O)O [Compound 30, Guanfacine (Glycolyl -(R)-Valine) Carbamate] | – | 77 | 160 | – | –
